In PubChem BioAssay (NCI):
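Method: 48-hour compound exposure of cells in 96-well plates, five concentrations, linear interpolation of endpoints. At the TGI there is no net growth.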 Where a SMILES comes first, the peptide text is derived from it. The star is where a group is joined. Cbz = O=C(OCc1ccccc1)*

Each compound was assayed on NCI-H226 lung (assay: NCI anticancer screen, dose series, 48 h).

Row | SMILES | TGI
1 | [N-]=[N+]=CC(=O)OC1Cc2ccccc2C1 | > 100 µM
2 | COc1ccc(/C=C2\c3cc(OC)c(OC)cc3CCN2C(=O)c2ccccc2)cc1OC | > 100 µM
3 | FC(F)(F)c1ccc2c(c1)nc(-c1ccc(Cl)cc1)n2CC1CCCN2CCCCC12 (stereo not drawn) | 31.4 µM
4 | O=C(CNS(=O)(=O)Cc1ccccc1)NNc1ccccc1 | > 100 µM

These compounds were tested on NCI-H23 lung (assay: NCI anticancer screen, dose series, 48 h).

Row | SMILES | TGI
5 | CC(NC(=O)C(NC(=O)OCc1ccccc1)C(C)C)C(=O)NCC(=O)O (stereo not drawn) (Cbz-Val-Ala-Gly-OH; configuration not given here) | > 100 µM
6 | [N-]=[N+]=CC(=O)OC1Cc2ccccc2C1 | > 100 µM
7 | COc1ccc(/C=C2\c3cc(OC)c(OC)cc3CCN2C(=O)c2ccccc2)cc1OC | > 100 µM
8 | O=c1oc2c/c(=C\c3ccc([N+](=O)[O-])cc3)c(=O)c3cccc1c3-2 | > 100 µM
9 | Nc1ccccc1N=Cc1cc2cc([N+](=O)[O-])ccc2s1 | > 100 µM
10 | O=C(CNS(=O)(=O)Cc1ccccc1)NNc1ccccc1 | > 100 µM

The compounds below were run on NCI-H460 lung (assay: NCI anticancer screen, dose series, 48 h).

Row | SMILES | TGI
11 | CC(NC(=O)C(NC(=O)OCc1ccccc1)C(C)C)C(=O)NCC(=O)O (stereo not drawn) (Cbz-Val-Ala-Gly-OH; configuration not given here) | > 100 µM
12 | [N-]=[N+]=CC(=O)OC1Cc2ccccc2C1 | > 100 µM
13 | COc1ccc(/C=C2\c3cc(OC)c(OC)cc3CCN2C(=O)c2ccccc2)cc1OC | 87.6 µM
14 | O=c1oc2c/c(=C\c3ccc([N+](=O)[O-])cc3)c(=O)c3cccc1c3-2 | > 100 µM
15 | FC(F)(F)c1ccc2c(c1)nc(-c1ccc(Cl)cc1)n2CC1CCCN2CCCCC12 (stereo not drawn) | 31.4 µM
16 | Nc1ccccc1N=Cc1cc2cc([N+](=O)[O-])ccc2s1 | 47.5 µM
17 | O=C(CNS(=O)(=O)Cc1ccccc1)NNc1ccccc1 | > 100 µM

The compounds below were run on NCI-H522 lung (assay: NCI anticancer screen, dose series, 48 h).

Row | SMILES | TGI
18 | CC(NC(=O)C(NC(=O)OCc1ccccc1)C(C)C)C(=O)NCC(=O)O (stereo not drawn) (Cbz-Val-Ala-Gly-OH; configuration not given here) | > 100 µM
19 | [N-]=[N+]=CC(=O)OC1Cc2ccccc2C1 | > 100 µM
20 | COc1ccc(/C=C2\c3cc(OC)c(OC)cc3CCN2C(=O)c2ccccc2)cc1OC | 45.4 µM
21 | O=c1oc2c/c(=C\c3ccc([N+](=O)[O-])cc3)c(=O)c3cccc1c3-2 | 90.5 µM
22 | FC(F)(F)c1ccc2c(c1)nc(-c1ccc(Cl)cc1)n2CC1CCCN2CCCCC12 (stereo not drawn) | 26.5 µM
23 | Nc1ccccc1N=Cc1cc2cc([N+](=O)[O-])ccc2s1 | > 100 µM
24 | O=C(CNS(=O)(=O)Cc1ccccc1)NNc1ccccc1 | > 100 µM

These compounds were tested on NCI/ADR-RES ovarian (assay: NCI anticancer screen, dose series, 48 h).

Row | SMILES | TGI
25 | CC(NC(=O)C(NC(=O)OCc1ccccc1)C(C)C)C(=O)NCC(=O)O (stereo not drawn) (Cbz-Val-Ala-Gly-OH; configuration not given here) | > 100 µM
26 | [N-]=[N+]=CC(=O)OC1Cc2ccccc2C1 | > 100 µM
27 | COc1ccc(/C=C2\c3cc(OC)c(OC)cc3CCN2C(=O)c2ccccc2)cc1OC | 76.4 µM
28 | O=c1oc2c/c(=C\c3ccc([N+](=O)[O-])cc3)c(=O)c3cccc1c3-2 | > 100 µM
29 | FC(F)(F)c1ccc2c(c1)nc(-c1ccc(Cl)cc1)n2CC1CCCN2CCCCC12 (stereo not drawn) | 29.2 µM
30 | Nc1ccccc1N=Cc1cc2cc([N+](=O)[O-])ccc2s1 | > 100 µM
31 | O=C(CNS(=O)(=O)Cc1ccccc1)NNc1ccccc1 | > 100 µM

These compounds were tested on OVCAR-3 ovarian (assay: NCI anticancer screen, dose series, 48 h).

Row | SMILES | TGI
32 | CC(NC(=O)C(NC(=O)OCc1ccccc1)C(C)C)C(=O)NCC(=O)O (stereo not drawn) (Cbz-Val-Ala-Gly-OH; configuration not given here) | > 100 µM
33 | [N-]=[N+]=CC(=O)OC1Cc2ccccc2C1 | > 100 µM
34 | COc1ccc(/C=C2\c3cc(OC)c(OC)cc3CCN2C(=O)c2ccccc2)cc1OC | > 100 µM
35 | O=c1oc2c/c(=C\c3ccc([N+](=O)[O-])cc3)c(=O)c3cccc1c3-2 | > 100 µM
36 | FC(F)(F)c1ccc2c(c1)nc(-c1ccc(Cl)cc1)n2CC1CCCN2CCCCC12 (stereo not drawn) | 33.6 µM
37 | Nc1ccccc1N=Cc1cc2cc([N+](=O)[O-])ccc2s1 | 30.1 µM
38 | O=C(CNS(=O)(=O)Cc1ccccc1)NNc1ccccc1 | > 100 µM

The compounds below were run on OVCAR-4 ovarian (assay: NCI anticancer screen, dose series, 48 h).

Row | SMILES | TGI
39 | [N-]=[N+]=CC(=O)OC1Cc2ccccc2C1 | > 100 µM
40 | FC(F)(F)c1ccc2c(c1)nc(-c1ccc(Cl)cc1)n2CC1CCCN2CCCCC12 (stereo not drawn) | 35.6 µM
41 | O=C(CNS(=O)(=O)Cc1ccccc1)NNc1ccccc1 | > 100 µM

Each compound was assayed on OVCAR-5 ovarian (assay: NCI anticancer screen, dose series, 48 h).

Row | SMILES | TGI
42 | CC(NC(=O)C(NC(=O)OCc1ccccc1)C(C)C)C(=O)NCC(=O)O (stereo not drawn) (Cbz-Val-Ala-Gly-OH; configuration not given here) | > 100 µM
43 | [N-]=[N+]=CC(=O)OC1Cc2ccccc2C1 | > 100 µM
44 | COc1ccc(/C=C2\c3cc(OC)c(OC)cc3CCN2C(=O)c2ccccc2)cc1OC | > 100 µM
45 | O=c1oc2c/c(=C\c3ccc([N+](=O)[O-])cc3)c(=O)c3cccc1c3-2 | > 100 µM
46 | FC(F)(F)c1ccc2c(c1)nc(-c1ccc(Cl)cc1)n2CC1CCCN2CCCCC12 (stereo not drawn) | 21.4 µM
47 | Nc1ccccc1N=Cc1cc2cc([N+](=O)[O-])ccc2s1 | > 100 µM
48 | O=C(CNS(=O)(=O)Cc1ccccc1)NNc1ccccc1 | > 100 µM

Each compound was assayed on OVCAR-8 ovarian (assay: NCI anticancer screen, dose series, 48 h).

Row | SMILES | TGI
49 | CC(NC(=O)C(NC(=O)OCc1ccccc1)C(C)C)C(=O)NCC(=O)O (stereo not drawn) (Cbz-Val-Ala-Gly-OH; configuration not given here) | > 100 µM
50 | [N-]=[N+]=CC(=O)OC1Cc2ccccc2C1 | > 100 µM
51 | COc1ccc(/C=C2\c3cc(OC)c(OC)cc3CCN2C(=O)c2ccccc2)cc1OC | > 100 µM
52 | O=c1oc2c/c(=C\c3ccc([N+](=O)[O-])cc3)c(=O)c3cccc1c3-2 | > 100 µM
53 | FC(F)(F)c1ccc2c(c1)nc(-c1ccc(Cl)cc1)n2CC1CCCN2CCCCC12 (stereo not drawn) | 30.1 µM
54 | Nc1ccccc1N=Cc1cc2cc([N+](=O)[O-])ccc2s1 | 45.7 µM
55 | O=C(CNS(=O)(=O)Cc1ccccc1)NNc1ccccc1 | > 100 µM

The compounds below were run on PC-3 prostate (assay: NCI anticancer screen, dose series, 48 h).

Row | SMILES | TGI
56 | CC(NC(=O)C(NC(=O)OCc1ccccc1)C(C)C)C(=O)NCC(=O)O (stereo not drawn) (Cbz-Val-Ala-Gly-OH; configuration not given here) | > 100 µM
57 | [N-]=[N+]=CC(=O)OC1Cc2ccccc2C1 | > 100 µM
58 | COc1ccc(/C=C2\c3cc(OC)c(OC)cc3CCN2C(=O)c2ccccc2)cc1OC | > 100 µM
59 | O=c1oc2c/c(=C\c3ccc([N+](=O)[O-])cc3)c(=O)c3cccc1c3-2 | > 100 µM
60 | FC(F)(F)c1ccc2c(c1)nc(-c1ccc(Cl)cc1)n2CC1CCCN2CCCCC12 (stereo not drawn) | 23.7 µM
61 | Nc1ccccc1N=Cc1cc2cc([N+](=O)[O-])ccc2s1 | 30.9 µM
62 | O=C(CNS(=O)(=O)Cc1ccccc1)NNc1ccccc1 | > 100 µM

These compounds were tested on RPMI-8226 leukemia (assay: NCI anticancer screen, dose series, 48 h).

Row | SMILES | TGI
63 | CC(NC(=O)C(NC(=O)OCc1ccccc1)C(C)C)C(=O)NCC(=O)O (stereo not drawn) (Cbz-Val-Ala-Gly-OH; configuration not given here) | > 100 µM
64 | [N-]=[N+]=CC(=O)OC1Cc2ccccc2C1 | > 100 µM
65 | COc1ccc(/C=C2\c3cc(OC)c(OC)cc3CCN2C(=O)c2ccccc2)cc1OC | > 100 µM
66 | O=c1oc2c/c(=C\c3ccc([N+](=O)[O-])cc3)c(=O)c3cccc1c3-2 | > 100 µM
67 | Nc1ccccc1N=Cc1cc2cc([N+](=O)[O-])ccc2s1 | 46.8 µM
68 | O=C(CNS(=O)(=O)Cc1ccccc1)NNc1ccccc1 | > 100 µM

These compounds were tested on RXF 393 renal (assay: NCI anticancer screen, dose series, 48 h).

Row | SMILES | TGI
69 | CC(NC(=O)C(NC(=O)OCc1ccccc1)C(C)C)C(=O)NCC(=O)O (stereo not drawn) (Cbz-Val-Ala-Gly-OH; configuration not given here) | > 100 µM
70 | [N-]=[N+]=CC(=O)OC1Cc2ccccc2C1 | > 100 µM
71 | COc1ccc(/C=C2\c3cc(OC)c(OC)cc3CCN2C(=O)c2ccccc2)cc1OC | > 100 µM
72 | FC(F)(F)c1ccc2c(c1)nc(-c1ccc(Cl)cc1)n2CC1CCCN2CCCCC12 (stereo not drawn) | 30.1 µM
73 | Nc1ccccc1N=Cc1cc2cc([N+](=O)[O-])ccc2s1 | 28.7 µM
74 | O=C(CNS(=O)(=O)Cc1ccccc1)NNc1ccccc1 | > 100 µM

Each compound was assayed on SF-268 CNS (assay: NCI anticancer screen, dose series, 48 h).

Row | SMILES | TGI
75 | CC(NC(=O)C(NC(=O)OCc1ccccc1)C(C)C)C(=O)NCC(=O)O (stereo not drawn) (Cbz-Val-Ala-Gly-OH; configuration not given here) | > 100 µM
76 | [N-]=[N+]=CC(=O)OC1Cc2ccccc2C1 | > 100 µM
77 | COc1ccc(/C=C2\c3cc(OC)c(OC)cc3CCN2C(=O)c2ccccc2)cc1OC | > 100 µM
78 | O=c1oc2c/c(=C\c3ccc([N+](=O)[O-])cc3)c(=O)c3cccc1c3-2 | > 100 µM
79 | FC(F)(F)c1ccc2c(c1)nc(-c1ccc(Cl)cc1)n2CC1CCCN2CCCCC12 (stereo not drawn) | 27.5 µM
80 | Nc1ccccc1N=Cc1cc2cc([N+](=O)[O-])ccc2s1 | 35.6 µM
81 | O=C(CNS(=O)(=O)Cc1ccccc1)NNc1ccccc1 | > 100 µM

Each compound was assayed on SF-295 CNS (assay: NCI anticancer screen, dose series, 48 h).

Row | SMILES | TGI
82 | CC(NC(=O)C(NC(=O)OCc1ccccc1)C(C)C)C(=O)NCC(=O)O (stereo not drawn) (Cbz-Val-Ala-Gly-OH; configuration not given here) | > 100 µM
83 | [N-]=[N+]=CC(=O)OC1Cc2ccccc2C1 | > 100 µM
84 | COc1ccc(/C=C2\c3cc(OC)c(OC)cc3CCN2C(=O)c2ccccc2)cc1OC | > 100 µM
85 | O=c1oc2c/c(=C\c3ccc([N+](=O)[O-])cc3)c(=O)c3cccc1c3-2 | > 100 µM
86 | FC(F)(F)c1ccc2c(c1)nc(-c1ccc(Cl)cc1)n2CC1CCCN2CCCCC12 (stereo not drawn) | 31.7 µM
87 | Nc1ccccc1N=Cc1cc2cc([N+](=O)[O-])ccc2s1 | > 100 µM
88 | O=C(CNS(=O)(=O)Cc1ccccc1)NNc1ccccc1 | > 100 µM

These compounds were tested on SF-539 CNS (assay: NCI anticancer screen, dose series, 48 h).

Row | SMILES | TGI
89 | CC(NC(=O)C(NC(=O)OCc1ccccc1)C(C)C)C(=O)NCC(=O)O (stereo not drawn) (Cbz-Val-Ala-Gly-OH; configuration not given here) | > 100 µM
90 | [N-]=[N+]=CC(=O)OC1Cc2ccccc2C1 | > 100 µM
91 | COc1ccc(/C=C2\c3cc(OC)c(OC)cc3CCN2C(=O)c2ccccc2)cc1OC | > 100 µM
92 | FC(F)(F)c1ccc2c(c1)nc(-c1ccc(Cl)cc1)n2CC1CCCN2CCCCC12 (stereo not drawn) | 28.8 µM
93 | Nc1ccccc1N=Cc1cc2cc([N+](=O)[O-])ccc2s1 | 27.4 µM
94 | O=C(CNS(=O)(=O)Cc1ccccc1)NNc1ccccc1 | > 25.6 µM

These compounds were tested on SK-MEL-2 melanoma (assay: NCI anticancer screen, dose series, 48 h).

Row | SMILES | TGI
95 | CC(NC(=O)C(NC(=O)OCc1ccccc1)C(C)C)C(=O)NCC(=O)O (stereo not drawn) (Cbz-Val-Ala-Gly-OH; configuration not given here) | > 100 µM
96 | [N-]=[N+]=CC(=O)OC1Cc2ccccc2C1 | > 100 µM
97 | COc1ccc(/C=C2\c3cc(OC)c(OC)cc3CCN2C(=O)c2ccccc2)cc1OC | > 100 µM
98 | O=c1oc2c/c(=C\c3ccc([N+](=O)[O-])cc3)c(=O)c3cccc1c3-2 | > 100 µM
